In article PMC2729980 (Planta, 2009):

Target: T1, DkFGT (GST-DkFGT) (Diospyros kaki, UniProt C8KH59)
T1 sequence (C8KH59 1-459): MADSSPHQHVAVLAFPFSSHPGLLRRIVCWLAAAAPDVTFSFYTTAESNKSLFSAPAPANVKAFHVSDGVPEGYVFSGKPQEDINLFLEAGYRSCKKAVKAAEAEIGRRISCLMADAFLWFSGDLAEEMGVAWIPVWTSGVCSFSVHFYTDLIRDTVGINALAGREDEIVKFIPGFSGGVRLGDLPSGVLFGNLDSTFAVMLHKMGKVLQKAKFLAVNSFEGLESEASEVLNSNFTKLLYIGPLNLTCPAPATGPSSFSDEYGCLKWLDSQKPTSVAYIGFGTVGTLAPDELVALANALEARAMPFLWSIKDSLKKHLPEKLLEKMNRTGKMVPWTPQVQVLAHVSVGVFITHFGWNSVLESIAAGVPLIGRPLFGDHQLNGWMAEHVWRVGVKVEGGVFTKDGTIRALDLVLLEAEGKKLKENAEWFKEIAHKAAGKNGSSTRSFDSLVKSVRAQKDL
Experiment: biochemical

Row | SMILES | Km [µM]
1 | O=c1c(O)c(-c2ccc(O)cc2)oc2cc(O)cc(O)c12 [kaempferol] | 143
2 | Oc1ccc(-c2[o+]c3cc(O)cc(O)c3cc2O)cc1 [pelargonidin] | 186
